From BindingDB's records for doi:10.1016/j.chembiol.2007.05.004 (University of Tokyo, 2007) come the findings set out here.

pKi: −log10 of the molar value.

This test has as its target T1, Cytochrome P450 1B1 (Homo sapiens, UniProt Q16678).
T1 sequence (Q16678 whole entry): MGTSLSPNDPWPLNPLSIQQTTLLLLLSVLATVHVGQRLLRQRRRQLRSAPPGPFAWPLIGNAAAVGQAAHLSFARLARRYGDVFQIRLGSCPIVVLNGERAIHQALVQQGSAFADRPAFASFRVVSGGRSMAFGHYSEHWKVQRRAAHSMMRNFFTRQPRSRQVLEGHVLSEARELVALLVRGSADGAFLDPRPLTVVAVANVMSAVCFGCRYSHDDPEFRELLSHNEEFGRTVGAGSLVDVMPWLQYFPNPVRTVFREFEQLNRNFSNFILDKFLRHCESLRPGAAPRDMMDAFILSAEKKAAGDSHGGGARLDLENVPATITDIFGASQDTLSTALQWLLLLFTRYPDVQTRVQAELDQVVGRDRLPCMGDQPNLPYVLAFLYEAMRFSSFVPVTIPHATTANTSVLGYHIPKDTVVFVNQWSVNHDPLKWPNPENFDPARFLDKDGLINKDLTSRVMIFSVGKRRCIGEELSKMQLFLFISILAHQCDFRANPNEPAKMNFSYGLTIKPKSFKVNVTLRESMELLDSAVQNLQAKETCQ
Kind of test: EROD Assay. As to conditions: pH 8; 37 °C. An excerpt:
The ethoxyresorufin-O-deethylase (EROD) assay is used to test the activity of CYP1B1.
Consider `Oc1ccc(/C=C/c2cc(O)cc(O)c2)cc1` [5-[(E)-2-(4-hydroxyphenyl)ethenyl]benzene-1,3-diol], for which the negative-log Ki (pKi) (in general, the negative decadic logarithm of the Ki, by convention in mol/L) was 6.75.
In the case of `Oc1cc(O)cc(/C=C/c2ccccc2)c1` [(E)-5-(2-phenylethenyl)-1,3-benzenediol], the pKi was 7.13.
For `Oc1cc(O)cc(/C=C/c2ccc(F)cc2)c1` [Stilbene, 8f] the value was 6.49.
`Oc1cc(O)cc(/C=C/c2ccoc2)c1` [Stilbene, 15f] had a negative-log Ki (pKi) of 5.95.
For `Oc1cc(O)cc(/C=C/c2ccsc2)c1` [Stilbene, 16f] the value was 5.93.
